± gives the standard deviation of the averaged measurements.
Legend:
[1] = compound: T1, Nc1ncn([C@H]2C[C@H](O)[C@@H](CO)O2)c(=O)n1 [DECITABINE]; assay: surviving fraction relative to DMSO-only wells; higher = less growth inhibition; settings: exposure time: 5 days
Outline: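 Surviving fraction was calculated by normalising CellTiter-Glo luminescence to the median of DMSO-only wells. Tumour cell lines in log phase were seeded in 384-well plates at 250–500 cells per well, and 24 hours later were exposed continuously for five days to inhibitors at 0.5, 1, 5, 10, 50, 100, 500 and 1000 nM.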

[2] = compound: CS(=O)(=O)CCNCc1ccc(-c2ccc3ncnc(Nc4ccc(OCc5cccc(F)c5)c(Cl)c4)c3c2)o1 [LAPATINIB]; assay: area under dose-response curve of surviving fraction (unscaled, Aref=0) (surviving fraction x log10(nM)); higher = more resistant; settings: exposure time: 5 days; dose range 0.5-1000 nM
Outline: (§1)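 Inhibitor was applied to tumour cell lines at eight concentrations (0.5 to 1000 nM) for five days in 384-well plates. Luminescence from CellTiter-Glo, scaled to DMSO-only wells, gave surviving fractions in three screens per line, and these were fitted by 3-parameter logistic regression with the drc R package. The area under the curve is an unscaled activity area. Aref was 0, and dose was on a log10 scale.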

[3] = compound: T1, DECITABINE; assay: as above; settings: exposure time: 5 days; dose range 0.5-1000 nM
Outline: as §1

[4] = compound: COc1cccc2c1C(=O)c1c(O)c3c(c(O)c1C2=O)C[C@@](O)(C(=O)CO)C[C@@H]3O[C@H]1C[C@H](N)[C@H](O)[C@H](C)O1 [DOXORUBICIN]; assay: as above; settings: exposure time: 5 days; dose range 0.5-1000 nM
Outline: as §1

[5] = compound: COc1ccc(C2=N[C@@H](c3ccc(Cl)cc3)[C@@H](c3ccc(Cl)cc3)N2C(=O)N2CCNC(=O)C2)c(OC(C)C)c1 [NUTLIN3]; assay: as above; settings: exposure time: 5 days; dose range 0.5-1000 nM
Outline: as §1

[6] = compound: CCN(CC)CCCCNc1ncc2cc(-c3cc(OC)cc(OC)c3)c(NC(=O)NC(C)(C)C)nc2n1; assay: as above; settings: exposure time: 5 days; dose range 0.5-1000 nM
Outline: as §1

[7] = compound: CC[C@@H](C(=O)[C@@H](C)[C@@H](O)[C@H](C)[C@@H]1O[C@@H]([C@@H](CC)C(=O)O)CC[C@@H]1C)[C@H]1O[C@]2(C=C[C@@H](O)[C@]3(CC[C@@](C)([C@H]4CC[C@](O)(CC)[C@H](C)O4)O3)O2)[C@H](C)C[C@@H]1C [SALINOMYCIN]; assay: as above; settings: exposure time: 5 days; dose range 0.5-1000 nM
Outline: as §1

[8] = compound: Oc1ccc(/C=C/c2cc(O)cc(O)c2)cc1 [RESVERATROL]; assay: as above; settings: exposure time: 5 days; dose range 0.5-1000 nM
Outline: as §1

[9] = compound: CN(C)CC[C@H](CSc1ccccc1)Nc1ccc(S(=O)(=O)NC(=O)c2ccc(N3CCN(Cc4ccccc4-c4ccc(Cl)cc4)CC3)cc2)cc1[N+](=O)[O-] [ABT-737]; assay: as above; settings: exposure time: 5 days; dose range 0.5-1000 nM
Outline: as §1

[10] = compound: CS(=O)(=O)c1ccc(C(=O)Nc2ccc(Cl)c(-c3ccccn3)c2)c(Cl)c1 [VISMODEGIB]; assay: as above; settings: exposure time: 5 days; dose range 0.5-1000 nM
Outline: as §1

[11] = compound: C=CCNC1=C2C[C@@H](C)C[C@H](OC)[C@H](O)[C@@H](C)/C=C(\C)[C@H](OC(N)=O)[C@@H](OC)/C=C\C=C(/C)C(=O)NC(=CC1=O)C2=O [17-AAG]; assay: as above; settings: exposure time: 5 days; dose range 0.5-1000 nM
Outline: as §1

[12] = compound: CN1CC[C@H](c2c(O)cc(O)c3c(=O)cc(-c4ccccc4Cl)oc23)[C@H](O)C1 [FLAVOPIRIDOL]; assay: as above; settings: exposure time: 5 days; dose range 0.5-1000 nM
Outline: as §1

[13] = compound: COc1cc2c(cc1O)CC[C@@H]1[C@@H]2CC[C@]2(C)[C@@H](O)CC[C@@H]12 [2-METHOXYESTRADIOL]; assay: as above; settings: exposure time: 5 days; dose range 0.5-1000 nM
Outline: as §1

| Test System | surviving fraction ([1]; 0.5 nM) | surviving fraction ([1]; 1 nM) | surviving fraction ([1]; 5 nM) | surviving fraction ([1]; 10 nM) | surviving fraction ([1]; 50 nM) | surviving fraction ([1]; 100 nM) | surviving fraction ([1]; 500 nM) | surviving fraction ([1]; 1000 nM) | area under dose-response curve [2] | area under dose-response curve [3] | area under dose-response curve [4] | area under dose-response curve [5] | area under dose-response curve [6] | area under dose-response curve [7] | area under dose-response curve [8] | area under dose-response curve [9] | area under dose-response curve [10] | area under dose-response curve [11] | area under dose-response curve [12] | area under dose-response curve [13] |
| --- | --- | --- | --- | --- | --- | --- | --- | --- | --- | --- | --- | --- | --- | --- | --- | --- | --- | --- | --- | --- |
| CME SYNOVIAL | 1.27 ± 0.17 | 1.09 ± 0.072 | 1.19 ± 0.081 | 1.19 ± 0.089 | 0.987 ± 0.083 | 0.812 ± 0.063 | 0.484 ± 0.022 | 0.48 ± 0.042 | 4.25 | 2.82 | 1.52 | 4.32 | 3.88 | 2.88 | 4.4 | 4.41 | 3.77 | 1.9 | 2.35 | – |
| COLO320DM LARGE INTESTINE | 1.12 ± 0.044 | 1.12 ± 0.086 | 1.01 ± 0.076 | 1.03 ± 0.048 | 1.03 ± 0.071 | 0.928 ± 0.014 | 0.8568 ± 0.0037 | 0.792 ± 0.04 | 3.66 | 3.27 | 3.07 | 4.13 | 3.53 | 2.89 | 3.54 | 3.69 | 3.45 | 2.98 | 2.06 | 2.88 |
| H23 LUNG | 0.987 ± 0.028 | 0.985 ± 0.034 | 0.984 ± 0.033 | 0.899 ± 0.028 | 0.803 ± 0.036 | 0.721 ± 0.057 | 0.614 ± 0.077 | 0.562 ± 0.048 | 2.77 | 2.74 | 1.79 | 3.42 | 3.28 | – | 3.42 | 3.5 | 3.43 | 1.66 | 2.33 | 3.11 |
| HCC1395 BREAST | 1.19 ± 0.054 | 0.956 ± 0.1 | 1.34 ± 0.079 | 1.23 ± 0.072 | 1.26 ± 0.045 | 1.25 ± 0.086 | 1.17 ± 0.073 | 1.09 ± 0.031 | 3.36 | 4.02 | – | 3.79 | 2.85 | – | 3.66 | 3.99 | 2.48 | 3.19 | – | 3.84 |
| HOS BONE | 1.01 ± 0.039 | 1.02 ± 0.018 | 1.03 ± 0.031 | 0.995 ± 0.011 | 1.06 ± 0.015 | 1.02 ± 0.015 | 0.8753 ± 0.0038 | 0.731 ± 0.029 | 3.45 | 3.22 | 1.25 | 3.43 | – | 2.44 | 3.43 | 3.45 | 3.34 | 2.31 | 2.29 | 3.21 |
| JURKAT HAEMATOPOIETIC AND LYMPHOID TISSUE | 1 ± 0.04 | 1.06 ± 0.025 | 0.823 ± 0.022 | 0.746 ± 0.034 | 0.121 ± 0.0055 | 0.072 ± 0.003 | 0.0327 ± 0.00058 | 0.028 ± 0.001 | 3.21 | 1.56 | 1.12 | 3.49 | 3.44 | 2.52 | 3.34 | 3.08 | – | 2.65 | 2.12 | 2.65 |

— the supplement of paper PMC6045584
